Experimental findings from patent US6596718B1, “7-Morpholin-4yl-benzothiazole amide derivatives” (Hoffmann-La Roche Inc., priority 2001, dated 2003) are described below.

`COc1ccc(N2CCOCC2)c2sc(C(=O)NC[C@H]3CCCC[C@H]3O)nc12` (stereo in doubt) [Example 42, 4-Methoxy-7-morpholin-4-yl-benzothiazole-2-carboxylic acid (2-hydroxy-cyclohexylmethyl)-amide]: the melting point – broadly, the temperature, or range, at which the solid turns liquid – is 178 to 180 °C. `COc1ccc(N2CCOCC2)c2sc(C(=O)NC[C@@H]3CCCC[C@H]3O)nc12` (stereo in doubt) [Example 43, 4-Methoxy-7-morpholin-4-yl-benzothiazole-2-carboxylic acid (2-hydroxy-cyclohexylmethyl)-amide] gave a melting point of 133 to 135 °C. Turning to `COc1ccc(N2CCOCC2)c2sc(C(=O)N[C@H]3CCCC[C@@H]3O)nc12` (stereo in doubt) [Example 72, 4-Methoxy-7-morpholin-4-yl-benzothiazole-2-carboxylic acid (2-hydroxy-cyclohexyl)-amide], the melting point was in the range of 110 to 115 °C. As for `COc1ccc(N2CCOCC2)c2sc(C(=O)Nc3ccc(F)cc3)nc12` [Example 2, 4-Methoxy-7-morpholin-4-yl-benzothiazole-2-carboxylic Acid (4-Fluoro-phenyl)-amide], the figure is 206 to 208 °C; as for `COc1ccc(N2CCOCC2)c2sc(C(=O)NCc3ccccc3)nc12` [Example 3, 4-Methoxy-7-morpholin-4-yl-benzothiazole-2-carboxylic Acid Benzylamide], 156 to 158 °C; as for `COc1ccc(N2CCOCC2)c2sc(C(=O)Nc3ccccc3)nc12` [Example 4, 4-Methoxy-7-morpholin-4-yl-benzothiazole-2-carboxylic acid phenylamide], 190 to 191 °C. As for `COc1ccc(N2CCOCC2)c2sc(C(=O)NC3CCCCC3)nc12` [Example 5, 4-Methoxy-7-morpholin-4-yl-benzothiazole-2-carboxylic acid cyclohexylamide], the figure is 146 to 147 °C; as for `COc1ccc(N2CCOCC2)c2sc(C(=O)NCc3ccc(Cl)cc3)nc12` [Example 7, 4-Methoxy-7-morpholin-4-yl-benzothiazole-2-carboxylic acid 4-chloro-benzylamide], 175 to 176 °C; as for `COc1ccc(N2CCOCC2)c2sc(C(=O)NC3CCCC3)nc12` [Example 8, 4-Methoxy-7-morpholin-4-yl-benzothiazole-2-carboxylic acid cyclopentylamide], 174 to 175 °C. For `COc1ccc(NC(=O)c2nc3c(OC)ccc(N4CCOCC4)c3s2)cc1` [Example 10, 4-Methoxy-7-morpholin-4-yl-benzothiazole-2-carboxylic acid (4-methoxy-phenyl)-amide] the value was 148 °C.

Regarding `COc1cccc(NC(=O)c2nc3c(OC)ccc(N4CCOCC4)c3s2)c1` [Example 11, 4-Methoxy-7-morpholin-4-yl-benzothiazole-2-carboxylic acid (3-methoxy-phenyl)-amide], the melting point worked out at 160 °C.

Consider `COc1ccccc1NC(=O)c1nc2c(OC)ccc(N3CCOCC3)c2s1` [Example 12, 4-Methoxy-7-morpholin-4-yl-benzothiazole-2-carboxylic acid (2-methoxy-phenyl)-amide], for which the melting point stood at 191 °C. Take `COc1ccc(N2CCOCC2)c2sc(C(=O)NCc3ccc4c(c3)OCO4)nc12` [Example 14, 4-Methoxy-7-morpholin-4-yl-benzothiazole-2-carboxylic acid (benzo[1,3]dioxol-5-ylmethyl)-amide]: the melting point fell in the range of 190 to 193 °C. `COc1ccc(N2CCOCC2)c2sc(C(=O)NCc3cccnc3)nc12` [Example 18, 4-Methoxy-7-morpholin-4-yl-benzothiazole-2-carboxylic acid (pyridin-3-ylmethyl)-amide] came in with a melting point of 181 to 184 °C. For `COc1ccc(N2CCOCC2)c2sc(C(=O)Nc3ccccn3)nc12` [Example 19, 4-Methoxy-7-morpholin-4-yl-benzothiazole-2-carboxylic acid pyridin-2-ylamide] the value was 177 to 181 °C.
